Laboratory results: PMC10886891, “Enhanced Tumor Targeting and Antitumor Activity of Methylated β-Cyclodextrin-Threaded Polyrotaxanes by Conjugating Cyclic RGD Peptides” (Biomolecules, 2024)

Tests used:
[1] = system: 4T1 cells; experiment: Autophagic cell death: viability of 4T1 cells with 3-MA; assay type: cell-based, murine; settings: 2 mM 3-MA, 48 h
Description: To investigate the induction of autophagic cell death by cRGD-Me-PRXs, 4T1cells were pretreated with 2 mM 3-methyladenine (3-MA; Fujifilm Wako Pure Chemical) for 1 h, followed by treatment with cRGD-Me-PRXs (100 μM threaded β-CD) in the presence of 3-MA for 48 h at 37 °C. Cell viability was determined as described above.

[2] = Blood chemical analysis; assay type: in vivo, BALB/c mice; settings: 500 mg/kg i.v., 24 h
Description: The PRXs dissolved in PBS were intravenously administered at a dose of 500 mg/kg to female BALB/c mice (8 weeks). […] Plasma levels of blood urea nitrogen (BUN), creatinine (CRE), aspartate aminotransferase (AST), alanine aminotransferase (ALT), free cholesterol (F-CHO), cholesteryl esters (E-CHO), triglycerides (TG), and glucose (GLU) were measured using a Hitachi 7180 automatic analyzer (Hitachi, Tokyo, Japan). In addition, the mice were perfused with saline, and the major organs (heart, liver, spleen, lungs, and kidneys) were collected. The organs were fixed in 10% formalin solution for 1 d and embedded in paraffin. The paraffin blocks were cut into 3 μm sections, which were successively stained with H&E solution to assess histological alterations by bright-field microscope.

[3] = system: various cells, such as normal cells and apoptosis-resistant cells; settings: through interactions with cellular cholesterol; cited from earlier work
Text: Β-Cyclodextrin (β-CD) is a cyclic oligosaccharide comprising seven glucose units connected with α-1,4-linkages. Β-CD and its derivatives can incorporate various low-molecular-weight compounds, such as free cholesterol, into their hydrophobic cavity. […] 3-Methyladenine (3-MA) is a commonly used inhibitor of autophagy that functions by inhibiting class III phosphoinositide 3-kinase (PI3K) activity, which plays a pivotal role in autophagy induction. […] To exclude the effects of 3-MA on 4T1 cell viability, cRGD-Me-PRX-t ...

[4] = Biodistribution in 4T1 tumor-bearing mice; assay type: in vivo, BALB/c mice; settings: 24 h after i.v., Cy5.5-labeled; 500 mg/kg (Figure 7), 300 mg/kg; n = 6
Description: Animal experiments were approved by the Institutional Animal Care and Use Committee of Tokyo Medical and Dental University. Wild-type BALB/c mice (female, 8-weeks-old) were purchased from Japan SLC (Shizuoka, Japan). Cy5.5-labeled PRXs and CDs were intravenously administered to the mice at a dose of 300 mg/kg. After 24 h, the mice were anesthetized with an intraperitoneal injection of an anesthetized solution containing medetomidine hydrochloride (0.75 mg/kg), midazolam (4 mg/kg), and butorphanol tartrate (5 mg/kg). […] The mice were then perfused with saline, and the hearts, livers, lungs, spleens, kidneys, and tumors were harvested. The collected tissues (approximately 50 mg) were homogenized using a bead beater-type homogenizer (Beads Crusher μT-12; Taitec, Saitama, Japan) at 3000 rpm for 45 s. After centrifuging the homogenates (8000 rpm, 10 min), the supernatant was collected. The fluorescence intensities of the plasma and tissue homogenates were measured using Varioskan LUX at excitation and emission wavelengths of 673 and 707 nm, respectively. The amount of accumulated PRXs in the plasma and each tissue was calculated using the standard curve of Cy5.5-labeled Me-PRXs and Me-β-CDs, and the mean percentage of the injected dose per gram of tissue (ID %/g tissue) was determined for each sample.

[5] = Cholesterol solubilization (phase solubility); assay type: physicochemical; settings: pH 7.4, 24 h, 37 °C, n = 3
Description: Figure 2 (A) ^1H NMR spectra of Me- N3-PRX and cRGD-Me-PRX in D2O at 25 °C. (B) FT-IR spectra of Me-N3-PRX and cRGD-Me-PRX. (C) Time course of the cleavage of N-Trt end groups in Me-PRX, cRGD-Me-PRX, and cRGE-Me-PRX at pH 7.4 (open symbols) and pH 5.0 (closed symbols) at 37 °C. The data are expressed as the mean ± SD (n = 3). (D) Phase-solubility diagrams of cholesterol with Me-β-CD, cRGD-Me-β-CD, Me-PRX, cRGD-Me-PRX, and cRGE-Me-PRX at pH 7.4 (brown bars) and pH 5.0 (blue bars). The solubility of cholesterol was determined after incubation for 24 h at 37 °C. The data are expressed as the mean ± SD (n = 3; **** p < 0.0001; ns: not significant).
Another important aspect of Me-PRXs is the ability of released β-CDs to form an inclusion complex with intracellular cholesterol, because the interaction with intracellular cholesterol contributes to the induction of cell death. To assess this, the solubility of cholesterol was measured by incubating with Me-PRXs at pH 7.4 (physiological pH) and 5.0 (lysosomal pH) for 24 h was measured (Figure 2D). […] Additionally, the number of methyl groups of cRGD-Me-β-CD (12.5) was less than that of Me-β-CD (14.0), which may explain the reduced cholesterol solubilization capacity.

[6] = among various β-CD derivatives; cited from earlier work
Text: Β-Cyclodextrin (β-CD) is a cyclic oligosaccharide comprising seven glucose units connected with α-1,4-linkages. Β-CD and its derivatives can incorporate various low-molecular-weight compounds, such as free cholesterol, into their hydrophobic cavity. Recently, the therapeutic applications of β-CD derivatives have received considerable attention, because they improve the pathology of various metabolic diseases, such as Niemann–Pick type C (NPC) disease, Alzheimer’s disease, and atherosclerosis, through the removal of excess free ch ...

[7] = system: integrin αv (Itgav) mRNA in 4T1 cells; experiment: Downregulation of integrin αv by siRNA (RT-PCR); assay type: cell-based, murine; settings: compared with siControl; 30 nM, 24 h, normalized to Gapdh, n = 4
Description: siRNAs against murine integrin subunit alpha V (siItgav; sense: 5′-[…]-3′, antisense: 5′-[…]-3′) and Mission siRNA universal negative control were purchased from Merck. The siRNAs were transfected into 4T1 cells using the Lipofectamine 3000 Transfection Reagent (Thermo Fisher Scientific) at 30 nM for 24 h according to the manufacturer’s instructions. Total RNA was extracted from 4T1 cells using the FastGene RNA Premium Kit (Nippon Genetics, Tokyo, Japan) following the manufacturer’s instructions. The total RNA concentration was measured using a NanoDrop One spectrophotometer (Thermo Fisher Scientific). Total RNA was then converted into cDNA using ReverTra Ace qPCR RT master mix (Toyobo, Osaka, Japan). RT-PCR was performed using the Thunderbird SYBR qPCR mix (Toyobo) on a CFX Connect Real-Time System (Bio-Rad, Hercules, CA, USA). The PCR primer sequences were as follows: murine integrin subunit alpha V (Itgav), forward: 5′-[…]-3′, reverse: 5′-[…]-3′, murine glyceraldehyde 3-phosphate dehydrogenase (Gapdh) forward: 5′-[…]-3′, reverse: 5′-[…]-3′. The PCR cycling conditions included a pre-denaturation at 95 °C for 1 min, followed by 40 cycles of denaturation at 95 °C for 15 s and extension at 60 °C for 30 s. The mRNA expression levels in each sample were determined by the comparative CT (ΔΔCT) method and were normalized to the expression levels of Gapdh.

Cn1cnc(N)c2ncnc1-2 [3-MA, 3-methyladenine]
effect on 4T1 cell viability alone [1]: did not affect cell viability

Randomly methylated β-CD [Me-β-CD]
hepatic and renal toxicity [2]: hepatic and renal toxicities
plasma AST ([2]; n = 6): increased
plasma BUN ([2]; n = 6): increased
plasma CRE ([2]; n = 6): increased
apoptosis [3]: induced apoptosis
accumulation in kidney [4]: mostly accumulated in the kidney
solubilization of cholesterol [5]: solubilization of cholesterol was observed
ability to form inclusion complexes with free cholesterol [6]: highest ability to form inclusion complexes with free cholesterol

siItgav: siRNA against murine integrin subunit alpha V; sense: 5′-GACUUAGUUGUAGGAGCUU-3′, antisense: 5′-AAGCUCCUACAACUAAGUC-3′ (chemistry not given here)
expression level of integrin αv [7]: 32.9%
